SMILES strings stand for the structures. Where two headings read alike, the source gives them in different places. Marks after values point to notes of the source that are not given here.

The record followed here is patent publication US11000555B2, “Method for preparing a limax compound and therapeutic use thereof” (GUANGXI JIUFU BIOTECHNOLOGY CO., LTD, priority 2017, dated 2021).

For data set [1], the system named is mice. In words: Physical dependence test: induced withdrawal test for the mice. The settings on record: mouse, in vivo. How it is done: The daily doses were 25, 50, 75, 100, 125, 150 mg/kg according to the dose increasing principle, increased day by day, reached 150 mg/kg on day 6 which was adopted the same on day 7. The compound group was administered (ig) twice daily (8:00 am, 8:00 pm) at daily doses of 0.6, 1.2, 1.8, 2.4, 3.0, 3.6 g/kg. The dose increased every day from 0.6 g/kg to 3.6 g/kg on day 6 which was adopted the same on day 7. The negative control group was given (ig) the same volume of vegetable oil every day at the same time and for the same times as the compound group. On day 7, naloxone (8 mg/kg, ip) was given to each group of mice to induce withdrawal. The jump reaction within 30 min and weight change one hour before and after inducement were observed. Weight loss value=weight before inducement−weight after inducement.

Data set [2] relates to mice. In words: Mouse spontaneous activity test. In kind it is in vivo, Kunming mice. How it is done: Forty Kunming mice, half males and half females, were fasted for 12 h but free to drink water. The mice were randomly divided into four groups: a blank control group, a low does Compound group (0.4 g/kg, ig), a high dose Compound group (0.8 g/kg, ig) and a positive drug control group (Estazolam, 2 mg/kg). The mice were placed into the YLS-1A multifunctional recorder for spontaneous activities of small animals. After 5 minutes of adaptation, the number of the mice's spontaneous activities before administration were recorded, and the recording lasted for 10 minutes. The room was kept quiet during recording, at a room temperature of 20-24° C. After this, each group of mice was administered according to the above doses, and the number of spontaneous activities within 10 min were recorded 45 min later. The blank control group was given the same volume of normal saline (ig).

Data set [3] relates to mice. The data set is described as follows: Morphine-induced hyperexcitability test of mice. Format: in vivo, Kunming mice.
The subject of a further data set is rats. The data set is described as follows: Physical dependence test: induced withdrawal test for the rats. The settings on record: rat, in vivo. The protocol: The compound group was administered (ig) twice a day according to the dose increasing principle, at daily doses of 0.5, 1.0, 1.5, 2.0, 2.5, 3.0 g/kg. The dose was increased every day from 0.5 g/kg to 3.0 g/kg on day 6 which was adopted the same on day 7. The negative control group was given (ig) the same volume of vegetable oil per day at the same time and for the same times as the compound group. On day 8, the rats in each group were given naloxone (5 mg/kg, ip) to induce withdrawal, and the withdrawal status of the rats within 30 min and the weight change one hour before and after the inducement were observed. The evaluation criteria of withdrawal symptoms of rats were established by referring to the Tomoji Yanagita evaluation criteria and our pre-experimental results (see Appendix Table 17). The withdrawal scores and weight loss values of each group of rats were statistically processed. Weight loss value=weight before inducement−weight after inducement.

In data set [4] the test system is mice. The data set is described as follows: Acetic acid writhing test of mice. Format: in vivo, Kunming mice. Particulars: for Times of writhing: 0.6% acetic acid ip, in 20 min. The protocol:
Forty Kunming mice, male, were fasted for 12 h before the experiment but free to drink water. They were randomly divided into 4 groups: a blank control group, a low dose Compound group, a high dose Compound group, and a positive control group. […] The mice were administered (ig) at a low dose (0.4 g/kg) and a high dose (0.8 g/kg) of the compound, at a volume of 0.2 ml per 10 g body weight. The positive control group was administered (ip) methadone (20 mg/kg) and the blank control group was given (ig) the same volume of normal saline. Forty-five minutes after administration, each mouse was given (ip) 0.6% acetic acid, 0.2 ml for each. The mice were then observed for writhing reaction, with abdominal contraction and hind limb extension or hip elevation regarded as positive. Times of writhing in 20 min were recorded starting from 5 min after acetic acid injection. The analgesic effect was evaluated by taking completely inhibiting writhing reaction induced by acetic acid as an indicator.
(Writhing tests count abdominal constrictions after an irritant is injected.)

In data set [5] the test system is morphine-induced place preference of mice. The data set is described as follows: Conditioned place preference of morphine-induced mice. Format: in vivo, Kunming mice. The protocol: The mice were acclimatized for 3 days, the natural place preference time of the mice was measured before the administration, so that the mice with obvious preference on one cuboid of the experimental box were excluded to clear the effect of unconditional place preference on the results. […] The observation was conducted under sound insulation conditions. […] Thus, the white cuboid was used as the non-preferred side (i.e., the companion box).
After 6 consecutive days of training and administration, the mice developed conditioned place preference.
Each group was administered for 3 consecutive days.

For data set [6], the system named is mice. Particulars: mouse, in vivo; for Duration of mice staying in companion box: both, Kunming. The text has this: A conditioned place preference box was composed of black and white cuboids (30 cm×15 cm×15 cm), a movable partition plate is arranged in the middle of the box body to divide the box into two cuboids of the same volume, and the rat and mice can freely move from one cuboid to another when the partition plate is removed. Inner surfaces of one cuboid of the box body except the glass panel is painted black, the bottom plate is made to be a rough surface by using a soft blanket, the other cuboid of the box body except the glass surface is painted white, the bottom plate is made to be a smooth surface, and the whole experimental box has visual and tactile cues.
Mice were tested for natural preference one day prior to dosing to eliminate mice with significant preference on one side of the box and to exclude the effects of unconditioned place preference on the experimental results.
Each group of animals was administered twice daily at an interval of 8 hours (8:00, 16:00). […] The mice were placed in the white cuboid, which was the non-preferred side, after administration, and placed in the black cuboid, which was the preferred side, after administration of normal saline. The mice were kept in the box for 45 min, trained for 6 days. The place preference test was performed 24 h after the last administration. The partition plate of the preferred cuboid was removed, the mice were placed in the middle of the box one by one and observed for 15 minutes, and the duration of each of the mice staying in each cuboid was recorded on the basis of the positions of their heads.

[7] abbreviates: Before administration, high dose group.
Setting [8] is: Before administration, low dose group.

For the molecule `CC1(C)O[C@H]2CC[C@@]3(C)[C@@H]([C@@H](O)[C@H](O)[C@@H]3[C@@](C)(O)CC[C@@H]3OC(C)(C)[C@H]4CC[C@]3(C)O4)[C@]2(C)CC[C@H]1O` [the compound, limaxol A], in the data set with mice [1], the “Behaviour of mice after administration” value is given as “quiet without tail erecting reaction or excitatory movement”. For the same molecule, the “Withdrawal symptoms after administration of the compound, mice” value in the data set on mice [1] is recorded as “no obvious withdrawal symptoms”. The “Effect on spontaneous activity of mice” value in the data set with mice [2] (0.4, 0.8 g/kg, ig) was “significantly reduce the spontaneous activity of mice”. Besides, the “Number of spontaneous activities” value with mice [2] (After administration (45 min), high dose 0.8 g/kg ig) is 84.8 ± 31.69*^Δ▴ per 10 min; in the data set on mice [2] (After administration (45 min), low dose 0.4 g/kg ig), 104.6 ± 42.12^Δ▴▴ per 10 min; in the data set with mice [2] (setting [7]) it was 145.5 ± 82.57 per 10 min; in the data set on mice [2] (setting [8]), 165.5 ± 69.20 per 10 min. For the same molecule, the “Effect on excitability induced by morphine” value in the data set on mice [3] (0.4, 0.8 g/kg, ig) is “inhibit the increase of excitability induced by morphine and amphetamine”. Further, the “Number of activities, morphine-induced excitability” value is on record as 112.7 ± 23.04**^Δ▴▴ Times per min with mice [3] (After administration, high dose 0.8 g/kg ig, morphine 10 mg/kg); 102.0 ± 46.29**^Δ▴ Times per min with mice [3] (After administration, low dose 0.4 g/kg ig, morphine 10 mg/kg); 185.4 ± 36.93 Times per min in the data set with mice [3] (setting [7]); 191.5 ± 35.53 Times per min in the data set on mice [3] (setting [8]). Besides, in the data set with rats, the “Withdrawal symptoms after administration of the compound, rats” value was “no obvious withdrawal symptoms”. In addition, the Times of writhing in the data set on mice [4] (high dose 0.8 g/kg ig) was determined as 39.6 ± 13.21; with mice [4] (low dose 0.4 g/kg ig), 37.10 ± 15.69. In the data set on mice [4] (single administration 0.4, 0.8 g/kg, ig), the “Analgesic effect, acetic acid writhing test” value is “no obvious analgesic effect”. In addition, the “Duration of mice staying in companion box” value is reported as 511.8 ± 90.66*^ΔΔ s in data set [5] (After administration, high dose 0.8 g/kg ig 3 days + morphine 9 mg/kg sc, 15 min observation); 438.1 ± 116.45^#Δ s in data set [5] (After administration, low dose 0.4 g/kg ig 3 days + morphine 9 mg/kg sc, 15 min observation); 256.3 ± 114.43 s in data set [5] (Before administration (base line), high dose 0.8 g/kg + morphine 9 mg/kg group); 296.0 ± 142.93 s in data set [5] (Before administration (base line), low dose 0.4 g/kg + morphine 9 mg/kg group); 334.8 ± 94.96 s with mice [6]; 385.2 ± 188.16 s in the data set with mice [6] (6 days). In data set [5] (two doses (0.4, 0.8 g/kg) ig for 3 days), the “Effect on conditioned place preference of the morphine-induced mice” value is “no significant effect”. The “Psychological dependence, place preference test” value in the data set with mice [6] was “no tendency of psychological dependence”.
